# DBAASP
# How the values were obtained:
# Assay in all cases: ≥ marks a high value that may be exact or a test limit, other limits are often not marked, values filed in µg/mL are converted to µM
# [1] = test system: Escherichia coli DH5alpha
# Klebsiella pneumoniae = test system: Klebsiella pneumoniae
# Pseudomonas aeruginosa = test system: Pseudomonas aeruginosa
# Salmonella typhimurium = test system: Salmonella typhimurium
# [2] = test system: Candida albicans NCYC 1467
# [3] = test system: Enterococcus faecalis NCTC 12697
# [4] = test system: Escherichia coli NCTC 10418
# [5] = test system: Klebsiella pneumoniae ATCC 43816
# [6] = test system: Pseudomonas aeruginosa ATCC 27853
# [7] = test system: Staphylococcus aureus NCTC 10788
# [8] = test system: Staphylococcus aureus NCTC 12493
# Bacillus subtilis 168 = test system: Bacillus subtilis 168
# [9] = test system: Candida albicans F7-39/IDE99
# Escherichia coli B = test system: Escherichia coli B
# Staphylococcus aureus = test system: Staphylococcus aureus
# Bacillus cereus = test system: Bacillus cereus
# Escherichia coli = test system: Escherichia coli
Compound,MIC (Pseudomonas aeruginosa),MIC [2],MIC [3],MIC [4],MIC [5],MIC [6],MIC [7],MIC [8],MIC (Staphylococcus aureus),also measured
CC[C@H](C)[C@H](N)C(=O)N[C@@H](CC(C)C)C(=O)N1CCC[C@H]1C(=O)N[C@@H](Cc1c[nH]c2ccccc12)C(=O)N[C@@H](CCCCN)C(=O)N[C@@H](Cc1c[nH]c2ccccc12)C(=O)N[C@@H](C)C(=O)N[C@@H](Cc1c[nH]c2ccccc12)C(=O)N[C@@H](Cc1c[nH]c2ccccc12)C(=O)N[C@@H](C)C(=O)N[C@@H](Cc1c[nH]c2ccccc12)C(=O)N[C@@H](CCCN=C(N)N)C(=O)N[C@@H](CCCN=C(N)N)C(N)=O [ILPWKWAWWAWRR],100 µM,,,,,,,,,MIC [1]: 15 µM; MIC (Klebsiella pneumoniae): 25 µM; MIC (Salmonella typhimurium): 25 µM
CSCC[C@H](NC(=O)[C@H](CC(=O)O)NC(=O)[C@@H](NC(=O)[C@@H](NC(=O)[C@H](CCCCN)NC(=O)[C@H](CC(N)=O)NC(=O)[C@H](CC(C)C)NC(=O)[C@@H](NC(=O)[C@H](C)NC(=O)[C@H](CCCCN)NC(=O)CNC(=O)[C@H](C)NC(=O)[C@H](C)NC(=O)[C@H](CCCCN)NC(=O)CNC(=O)[C@@H](NC(=O)[C@H](CC(N)=O)NC(=O)[C@H](CCCCN)NC(=O)[C@H](CC(C)C)NC(=O)[C@H](CC(C)C)NC(=O)[C@H](CC(=O)O)NC(=O)[C@H](CCCCN)NC(=O)[C@H](Cc1c[nH]c2ccccc12)NC(=O)[C@H](CC(C)C)NC(=O)[C@H](C)N)C(C)C)C(C)C)C(C)C)[C@@H](C)O)C(=O)N[C@H](C(=O)N[C@@H](CC(N)=O)C(=O)N[C@@H](CCC(N)=O)C(N)=O)C(C)C [ALWKDLLKNVGKAAGKAVLNKVTDMVNQ],,4 µM,≥ 128 µM,4 µM,8 µM,8 µM,4 µM,8 µM,,
CC[C@H](C)[C@H](NC(=O)[C@H](C)NC(=O)[C@H](C)NC(=O)[C@@H]1CCCN1C(=O)[C@@H](NC(=O)[C@H](CC(C)C)NC(=O)[C@H](CCCCN)NC(=O)CNC(=O)[C@H](C)NC(=O)[C@@H](NC(=O)[C@H](CCCCN)NC(=O)[C@H](CC(C)C)NC(=O)[C@@H](NC(=O)[C@H](C)NC(=O)CNC(=O)[C@H](CC(C)C)NC(=O)[C@@H](N)Cc1ccccc1)C(C)C)C(C)C)C(C)C)C(=O)N[C@H]1CSSC[C@@H](C(=O)O)NC(=O)[C@H](CCCCN)NC(=O)[C@H](CCCCN)NC(=O)[C@H](CO)NC(=O)[C@H]([C@@H](C)CC)NC(=O)[C@H](CCCCN)NC1=O [FLGAVLKVAGKLVPAAICKISKKC],,2 µM,8 µM,4 µM,8 µM,32 µM,2 µM,4 µM,,
CC[C@H](C)[C@H](NC(=O)[C@H](CCCCN)NC(=O)[C@H](CO)NC(=O)[C@H](Cc1c[nH]c2ccccc12)NC(=O)[C@H](CC(C)C)NC(=O)CN)C(=O)N[C@@H](CCCCN)C(=O)N[C@@H](CCCCN)C(=O)N[C@@H](C)C(=O)N[C@@H](C)C(=O)N[C@@H](CCCCN)C(=O)N[C@H](C(=O)N[C@@H](C)C(=O)NCC(=O)N[C@@H](CCCCN)C(=O)N[C@@H](C)C(=O)N[C@@H](C)C(=O)N[C@@H](CC(C)C)C(=O)NCC(=O)N[C@@H](Cc1ccccc1)C(=O)N[C@H](C(=O)N[C@@H](CC(N)=O)C(=O)N[C@@H](CCCCN)C(=O)N[C@@H](CCSC)C(=O)N[C@H](C(N)=O)C(C)C)C(C)C)[C@@H](C)O [GLWSKIKKAAKTAGKAALGFVNKMV],,4 µM,2 µM,2 µM,2 µM,4 µM,2 µM,2 µM,,
CC(C)C[C@H](NC(=O)[C@H](CCC(N)=O)NC(=O)[C@H](CCC(N)=O)NC(=O)[C@H](C)NC(=O)CNC(=O)[C@H](C)NC(=O)[C@H](CCCCN)NC(=O)CNC(=O)[C@@H](NC(=O)[C@H](CCC(N)=O)NC(=O)[C@H](CCCCN)NC(=O)[C@@H]1CCCN1C(=O)[C@H](CC(C)C)NC(=O)[C@H](Cc1ccc(O)cc1)NC(=O)[C@H](CCCCN)NC(=O)[C@H](C)NC(=O)CNC(=O)[C@H](C)NC(=O)[C@H](CCCCN)NC(=O)[C@H](Cc1ccccc1)NC(=O)[C@H](CC(C)C)NC(=O)[C@H](CO)NC(=O)[C@H](CO)NC(=O)[C@H](Cc1ccccc1)NC(=O)CN)C(C)C)C(N)=O [GFSSLFKAGAKYLPKQVGKAGAQQL],,≥ 512 µM,≥ 512 µM,≥ 512 µM,≥ 512 µM,> 512 µM,≥ 512 µM,≥ 512 µM,,
CSCC[C@H](NC(=O)CN)C(=O)N[C@@H](Cc1c[nH]c2ccccc12)C(=O)N[C@@H](CO)C(=O)N[C@@H](CCCCN)C(=O)N[C@@H](CC(C)C)C(=O)N[C@@H](CC(C)C)C(=O)NCC(=O)N[C@@H](Cc1cnc[nH]1)C(=O)N[C@@H](CC(C)C)C(=O)N[C@@H](CC(C)C)C(=O)N[C@@H](CCCN=C(N)N)C(N)=O [GMWSKLLGHLLR],20.2 µM,,,,,,,,7.7 µM,MIC (Bacillus subtilis 168): 1.3 µM; MIC [9]: 5 µM; MIC (Escherichia coli B): 3 µM
CC[C@H](C)[C@H](NC(=O)[C@@H](NC(=O)[C@H](CS)NC(=O)[C@H](Cc1ccc(O)cc1)NC(=O)[C@@H](NC(=O)[C@H](CO)NC(=O)[C@@H]1CCCN1C(=O)[C@@H](NC(=O)[C@@H](NC(=O)[C@H](CCCCN)NC(=O)[C@H](CO)NC(=O)[C@H](C)NC(=O)[C@H](CC(C)C)NC(=O)[C@H](CCCCN)NC(=O)[C@H](Cc1ccccc1)NC(=O)[C@@H](NC(=O)[C@@H](N)C(C)C)C(C)C)C(C)C)C(C)C)C(C)C)[C@@H](C)O)C(=O)N[C@H](C(=O)N[C@@H](CCCCN)C(=O)N[C@@H](CCCCN)C(=O)O)[C@@H](C)O [VVFKLASKVVPSVYCTITKK],,,,,,,,,,MIC (Bacillus cereus): ≥ 116 µM; MIC (Escherichia coli): 116 µM
CC(C)C[C@H](NC(=O)[C@H](CCCCN)NC(=O)[C@H](Cc1ccccc1)NC(=O)[C@@H](NC(=O)[C@@H](NC(=O)CNC(=O)[C@H](CC(C)C)NC(=O)[C@@H](N)Cc1ccccc1)C(C)C)C(C)C)C(=O)N[C@@H](C)C(=O)N[C@@H](CO)C(=O)N[C@@H](CCCCN)C(=O)N[C@H](C(=O)N[C@@H](Cc1ccccc1)C(=O)N1CCC[C@H]1C(=O)N[C@@H](C)C(=O)N[C@H](C(=O)N[C@H](C(=O)NCC(=O)N[C@@H](CCCCN)C(=O)N[C@H](C(=O)O)C(C)C)C(C)C)C(C)C)C(C)C [FLGVVFKLASKVFPAVVGKV],,,,,,,,,15.2 µM,MIC (Bacillus cereus): 30.4 µM; MIC (Escherichia coli): 122 µM
CSCC[C@H](NC(=O)[C@H](C)NC(=O)[C@H](CC(C)C)NC(=O)[C@H](CCCCN)NC(=O)[C@H](CC(C)C)NC(=O)[C@H](CC(C)C)NC(=O)[C@H](CCCCN)NC(=O)[C@H](CCCCN)NC(=O)[C@@H](NC(=O)[C@@H](N)CC(C)C)C(C)C)C(=O)NCC(=O)N[C@@H](Cc1ccccc1)C(=O)NCC(N)=O [LVKKLLKLAMGFG],> 100 µM,,,,,,,,90 µM,MIC (Bacillus subtilis 168): 3.7 µM; MIC [9]: 25 µM; MIC (Escherichia coli B): 14.7 µM
CC[C@H](C)[C@@H]1NC(=O)[C@H](C)NC(=O)[C@@H](NC(=O)[C@H](CCCCN)NC(=O)[C@H](C)NC(=O)[C@H](C)NC(=O)[C@H](CC(C)C)NC(=O)CNC(=O)[C@H](C)NC(=O)[C@@H](NC(=O)[C@H](CC(C)C)NC(=O)[C@@H]2CCCN2C(=O)[C@H](CC(C)C)NC(=O)[C@@H](N)Cc2ccccc2)[C@@H](C)CC)CSSC[C@@H](C(=O)O)NC(=O)[C@H](CCCCN)NC(=O)[C@H](CCCCN)NC(=O)[C@H]([C@@H](C)O)NC1=O [FLPLIAGLAAKCAITKKC],,≥ 512 µM,≥ 512 µM,≥ 512 µM,≥ 512 µM,> 512 µM,≥ 512 µM,≥ 512 µM,,
CC[C@H](C)[C@H](NC(=O)[C@H](CC(C)C)NC(=O)[C@H](Cc1cnc[nH]1)NC(=O)CNC(=O)[C@H](CC(C)C)NC(=O)[C@@H](NC(=O)[C@H](CCCCN)NC(=O)[C@H](CO)NC(=O)[C@H](Cc1c[nH]c2ccccc12)NC(=O)[C@H](CCSC)NC(=O)CN)[C@@H](C)CC)C(=O)N[C@@H](CCCN=C(N)N)C(N)=O [GMWSKILGHLIR],45 µM,,,,,,,,7.7 µM,MIC (Bacillus subtilis 168): 0.8 µM; MIC [9]: 6.2 µM; MIC (Escherichia coli B): 3.8 µM
